Test results published in US20070154549A1, “Multiparticulate formulations for oral delivery” (VECTURA LTD, priority 2003, published 2007).
Where a name gives a salt, the structure may show the parent alone.

Assay: Dissolution studies / drug release
Assay type: physicochemical
Conditions: levels of hydrophobic melt binder of up to 20%

drug release: do not delay drug release
SMILES: CN(C)CCC(c1ccc(Cl)cc1)c1ccccn1 (stereo not shown) [chlorpheniramine maleate]
